# Data as given in PMC6874683, “Pyrrothiogatain acts as an inhibitor of GATA family proteins and inhibits Th2 cell differentiation in vitro” (Scientific Reports, 2019).
# Tested on: GATA3 expression
# Assay: Immunoblot of GATA3, naive CD4+ T cells under Th2 conditions
# Assay type: cell-based, mouse
# Settings: 80 µM, 5 days
# Procedure: Figure 5 Pyrrothiogatain inhibits Th2 cell differentiation and production of Th2 cytokines. (A) Intracellular staining of IL-5/IL-13, IL-4/IFN-γ, and IL-2/IFN-γ in naive CD4^+ T cells cultured under Th2 conditions in the presence or absence of pyrrothiogatain (30 and 80 µM) for five days. (B) Cytokine production induced in the pyrrothiogatain treated Th2 cells shown in panel (A) was determined by ELISA. (C) Quantitative RT-PCR analysis of the pyrrothiogatain-treated Th2 cells shown in panel (A). (D) Immunoblot analysis of GATA3 in naive CD4^+ T cells cultured under Th2 conditions in the presence or absence of pyrrothiogatain (80 µM) for 5 days. (E) Cytokine production from Th2 cells stimulated with immobilized anti-TCRβ mAb for 16 h in the presence or absence of pyrrothiogatain (0 to 100 µM). The amounts of IL-4, IL-5 and IL-13 in the culture supernatants were determined by ELSA. In (B), (C) and (E), all data are expressed as individual points of three independent experiments with error bars indicating standard deviation. […]
compound,measurement,value
"Cc1ccc(C)n1-c1ccsc1C(=O)O [Pyrrothiogatain, 3-(2,5-dimethyl-1H-pyrrol-1-yl)thiophene-2-carboxylic acid]","Expression of GATA3, protein level",not influenced
